# From patent publication US20020132223A1, “Methods for modulating activity of the FXR nuclear receptor” (City of Hope, priority 1999, published 2002)
# Entries after “also recorded” stand apart in the source; their conditions may differ.
# Tests used:
# [1] = biological target: T1, FXR-RXR heterodimers (Rattus norvegicus, UniProt Q62735); experiment: Transient transfection activation assay in CV-1 cells, EcRE×6 reporter, FXR + RXR; type: cell-based
# T1 sequence (Q62735 1-469): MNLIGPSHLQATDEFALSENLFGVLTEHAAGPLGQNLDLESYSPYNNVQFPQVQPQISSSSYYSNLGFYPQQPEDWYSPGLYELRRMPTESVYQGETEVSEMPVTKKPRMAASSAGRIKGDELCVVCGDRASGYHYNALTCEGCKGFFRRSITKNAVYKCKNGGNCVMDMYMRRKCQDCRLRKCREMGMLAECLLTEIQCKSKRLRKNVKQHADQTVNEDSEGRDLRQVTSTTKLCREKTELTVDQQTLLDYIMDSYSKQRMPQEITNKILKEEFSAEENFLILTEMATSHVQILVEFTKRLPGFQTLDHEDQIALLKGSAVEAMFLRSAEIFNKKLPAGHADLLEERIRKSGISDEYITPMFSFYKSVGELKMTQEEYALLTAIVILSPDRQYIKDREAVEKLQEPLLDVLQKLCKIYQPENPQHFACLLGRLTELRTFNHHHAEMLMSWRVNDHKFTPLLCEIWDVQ
# T1 sequence (P19793 1-462 partner): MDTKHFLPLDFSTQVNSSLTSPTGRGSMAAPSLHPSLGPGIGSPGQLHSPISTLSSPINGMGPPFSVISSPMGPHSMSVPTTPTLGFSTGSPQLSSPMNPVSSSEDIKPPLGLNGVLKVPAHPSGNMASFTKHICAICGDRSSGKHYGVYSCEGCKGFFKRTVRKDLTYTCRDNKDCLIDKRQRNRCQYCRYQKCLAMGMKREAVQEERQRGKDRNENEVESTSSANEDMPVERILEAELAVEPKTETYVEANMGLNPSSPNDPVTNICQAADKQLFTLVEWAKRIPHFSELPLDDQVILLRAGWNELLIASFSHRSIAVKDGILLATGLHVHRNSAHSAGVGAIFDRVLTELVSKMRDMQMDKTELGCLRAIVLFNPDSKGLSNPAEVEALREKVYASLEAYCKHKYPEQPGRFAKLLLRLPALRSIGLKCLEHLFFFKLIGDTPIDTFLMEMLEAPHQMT
# Text: Suitable reporter gene constructs are well known to skilled workers in the fields of biochemistry and molecular biology. Reporter/receptor pairs used in the assay reported in FIG. 1 are listed in Table I. All transfections additionally contained CMV-βgal as an internal control. Suitable constructs for use in the these studies may conveniently be cloned into pCMV. pCMV contains the cytomegalovirus promoter/enhancer followed by a bacteriophage T7 promoter for transcription in vitro. Other vectors known in the art can be used in the methods of the present invention.
# (§1) CV-1 cells for the activation assays were grown in Dulbecco's modified Eagle's medium supplemented with 10% resin charcoal-stripped fetal bovine serum, 50 U/ml penicillin G and 50 μg/ml streptomycin sulfate (DMEM-FBS) at 37° C. in 5% CO2. One day prior to transfection, cells were plated to 50-80% confluence using phenol red free DMEM-FBS.
# The cells were transiently transfected by lipofection. Reporter constructs (300 ng/10^5 cells) and cytomegalovirus-driven expression vectors (20-50 ng/10^5 cells) were added, with CMV-β-gal (500 ng/10^5 cells) as an internal control. After 2 hours, the liposomes were removed and the cells were treated for approximately 45 hours with phenol red free DMEM-FBS containing the test bile acid and other compounds.
# Any compound which is a candidate for activation of FXR may be tested by this method. […] After exposure to ligand, the cells were harvested and assayed for β-galactosidase activity (control) and activity of the specific reporter gene.
# Activity of the reporter gene can be conveniently normalized to the internal control and the data plotted as fold activation relative to untreated cells.
# (§2) A variety of commercially available bile acids (Sigma) were tested for their ability to activate known FXR-RXR (FIG. 9; left panel) and FXR-RXRm (FIG. 9, right panel).
# as §1, with “cells” for “cells for the activation assays”, “Modified” for “modified”, “resin-charcoal stripped” for “resin charcoal-stripped”, “phenol-red” for “phenol red”
# [2] = biological target: T2, FXR (Rattus norvegicus, UniProt Q62735); experiment: Transient transfection assay, FXR + RXR with liver bile acid transporter; type: cell-based; conditions: for EC50: with the liver bile acid transporter
# T2 sequence (Q62735 1-469): T1 sequence (Q62735 1-469)
# T2 sequence (P19793 1-462 partner): T1 sequence (P19793 1-462 partner)
# Text: The liver and ileum express tissue-specific bile acid transport proteins for efficient uptake of these compounds. […] CV-1 cells therefore were co-transfected with a human liver bile acid transporter (accession L21893). Use of this transporter allows hydrophilic bile acid or bile acid-derived compounds or compounds, which due to their structural similarity to bile acid are transported by the transporter, to be tested for activation of the intracellular bile acid nuclear receptor. […] Any suitable non-specific transporter may also be used.
# After transfection, cells were treated with 100 μM concentrations of the indicated bile acid.
# In addition to the structure-activity studies, dose-response analyses were performed for some bile acid nuclear receptor ligands. For these analyses, shown in FIG. 11, CV-1 cells were transfected as above, with the liver bile acid transporter, and treated with the indicated varying concentrations of each bile acid.
# [3] = tested on: FXR derived from human, rat and mouse; experiment: Antagonism of CDCA activation of FXR in CV-1 cells; type: cell-based; conditions: 50 μM CDCA, 20 μM azole compound
# Procedure: The FXR receptor activation assays disclosed herein may be used not only to test compounds for activation of FXR as above, but also for compounds which antagonize FXR activation. […] See Example 7.
# CV-1 cells were grown in DMEM supplemented with 10% resin-charcoal stripped fetal bovine serum, 50 U/ml penicillin G and 50 μg/ml streptomycin sulfate at 37° C. in 5% CO2. Cells were plated to 50-80% confluence one day prior to transfection using phenol red-free DMEM-FBS. The cells were transfected by lipofection using N-[1-(2,3-dioleoyloxy)propyl]-N,N,N-ammonium methyl sulfate according to manufacture's instructions (Boehringer Mannheim). The cells were transfected with a CMV expression vector containing the FXR indicated in FIG. 16 (none, −; human, hFXR; rat, rFXR; or mouse, mFXR) and RXR. The luciferase reporter construct contained the herpesvirus thymidine kinase promoter (−105/+51) linked to six copies of the response element hsp27 EcRE. […] After exposure to the agonist and candidate antagonist compounds, cells were harvested and assayed for luciferase and β-galactosidase activity. […] Therefore, clotrimazole, Compound A and Compound B were selected from the screen as FXR receptor antagonists.
# [4] = biological target: T3, FXR + RXRm (Rattus norvegicus, UniProt Q62735); experiment: In vitro coactivator recruitment assay (mobility shift), FXR + RXRm, GST-GRIP1; type: biochemical
# T3 sequence (Q62735 1-469): T1 sequence (Q62735 1-469)
# T3 sequence (Q61026 625-765 partner): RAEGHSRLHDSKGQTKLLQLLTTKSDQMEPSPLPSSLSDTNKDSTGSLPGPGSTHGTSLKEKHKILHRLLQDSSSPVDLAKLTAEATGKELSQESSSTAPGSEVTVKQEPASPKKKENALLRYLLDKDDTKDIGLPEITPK
# Procedure: In vitro coactivator recruitment assays were performed by adding the ligand to a mixture of the following components: FXR, 9-cis retinoic acid receptor, a coactivator, and a labeled FXR response element (probe). A polyamino acid containing the receptor interaction domains of co-activator GRIP1 may be used as the coactivator, however any functional coactivator or coactivator complex is contemplated for use in this assay. GRIP1 was expressed in bacteria and purified for these assays. The GST-GRIP1 construct, containing the three receptor interaction domains of mouse GRIP1 (Arg 625-Lys 765, accession U39060) fused to glutathione-S-transferase, was created for bacterial expression of the GRIP1 coactivator. […] Response elements suitable for use in this assay may be any nucleic acid probe which is substantially homologous to the target DNA sequence of the bile acid nuclear receptor.
# After addition of the putative ligand to the mixture of components describe above and mixing, the mixture is incubated under conditions. […] Techniques such as, for example, thin layer chromatography, high pressure liquid chromatography, size exclusion chromatography, sedimentation, immunoseparation techniques, or any other convenient method known in the art may be used.
# To distinguish between binding through the FXR and RXR subunits, the coactivator recruitment assays were repeated substituting RXRm for RXR. […]
# [5] = tested on: RXRα; PPARα, γ and δ; VDR; T3Rβ; RAR; PXR; LXRα and CARβ; experiment: Activation of other receptors by CDCA (data not shown)
# [6] = biological target: T4, RXR (GAL-L-RXR) (Homo sapiens, UniProt P19793); experiment: GAL4 chimera activation assay in CV-1 cells, UASG×4 reporter, GAL-L-RXR
# T4 sequence (P19793 203-462): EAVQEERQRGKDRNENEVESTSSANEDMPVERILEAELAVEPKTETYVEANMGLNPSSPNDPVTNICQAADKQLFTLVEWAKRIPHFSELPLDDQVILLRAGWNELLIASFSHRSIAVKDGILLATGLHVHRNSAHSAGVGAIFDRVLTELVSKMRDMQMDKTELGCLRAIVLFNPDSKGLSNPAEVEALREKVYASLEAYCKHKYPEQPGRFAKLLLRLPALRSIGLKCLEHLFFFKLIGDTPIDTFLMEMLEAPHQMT
# Text: CV-1 cells were transiently transfected with a UASG×4 reporter and expression vectors for β-galactosidase and either GAL-L-RXR or the GAL-L-RXRm LBD mutant.
# Confirmation of the analytical procedure was achieved by testing FXR-RXR and FXR-RXRm dimers for activation by RXR and FXR ligands. […] This type of assay therefore can specifically discriminate between activation by RXR ligands and FXR ligands.
# [7] = biological target: T5, FXR-RXR heterodimers (Rattus norvegicus, UniProt Q62735); experiment: In vitro coactivator recruitment assay (mobility shift), FXR + RXR, GST-GRIP1; type: biochemical
# T5 sequence (Q62735 1-469): T1 sequence (Q62735 1-469)
# T5 sequence (P19793 1-462 partner): T1 sequence (P19793 1-462 partner)
# T5 sequence (Q61026 625-765 partner limits assumed): T3 sequence (Q61026 625-765 partner)
# Procedure: In vitro coactivator recruitment assays were performed by adding the ligand to a mixture of the following components: FXR, 9-cis retinoic acid receptor, a coactivator, and a labeled FXR response element (probe). […] GRIP1 was expressed in bacteria and purified for these assays. The GST-GRIP1 construct, containing the three receptor interaction domains of mouse GRIP1 (Arg 625-Lys 765, accession U39060) fused to glutathione-S-transferase, was created for bacterial expression of the GRIP1 coactivator.
# After addition of the putative ligand to the mixture of components describe above and mixing, the mixture is incubated under conditions.
# GST-GRIP1 was expressed in E. coli and purified on glutathione-sepharose columns. […] Complexes were electrophoresed through a 5% polyacrylamide gel in 0.5×TBE (45 mM Tris base, 45 mM boric acid, 1 mM EDTA) at room temperature. Electrophoretic mobility indicated recruitment of coactivator.
# [8] = biological target: T6, FXR-RXRm (Rattus norvegicus, UniProt Q62735); experiment: Transient transfection activation assay in CV-1 cells, FXR + RXRm; type: cell-based; conditions: 100 nM
# T6 sequence (Q62735 1-469): T1 sequence (Q62735 1-469)
# Procedure: as §2
# as §1, with “cells” for “cells for the activation assays”, “Modified” for “modified”, “resin-charcoal stripped” for “resin charcoal-stripped”, “phenol-red” for “phenol red”
# [9] = bile acids 100 μM, no bile acid transporter
smiles,measurement,setting,value
C[C@H](CCC(=O)O)[C@H]1CC[C@H]2[C@@H]3[C@H](O)[C@@H](O)[C@@H]4C[C@H](O)CC[C@]4(C)[C@H]3CC[C@]12C [α-muricholic acid],activity as FXR activator,[1]; [9],inactive
"C[C@H](CCC(=O)O)[C@H]1CC[C@H]2[C@@H]3CC[C@@H]4C[C@H](O)CC[C@]4(C)[C@H]3C[C@H](O)[C@]12C [DCA, deoxycholic acid]",EC50,[2],~50 µM
c1ccc(-c2cn(C(c3ccccc3)(c3ccccc3)c3ccccc3)cn2)cc1 [Compound B],antagonism of CDCA activation of FXR,[3],displayed antagonist properties; also recorded: demonstrate inhibition of FXR activation
C[C@H](CCC(=O)NCC(=O)O)[C@H]1CC[C@H]2[C@@H]3CC[C@@H]4C[C@H](O)CC[C@]4(C)[C@H]3CC[C@]12C [glyco-LCA],coactivator recruitment by FXR-RXRm,[4],recruited coactivator
FC(F)(F)c1cccc(C(c2ccccc2)(c2ccccc2)n2ccnc2)c1 [Compound A],antagonism of CDCA activation of FXR,[3],displayed antagonist properties; also recorded: significant but weak activity
Clc1ccccc1C(c1ccccc1)(c1ccccc1)n1ccnc1 [clotrimazole],antagonism of CDCA activation of FXR,[3],strongest effect; also recorded: strongly active
C[C@H](CCC(=O)O)[C@H]1CC[C@H]2[C@@H]3C[C@@H](O)[C@@H]4C[C@H](O)CC[C@]4(C)[C@H]3CC[C@]12C [murocholic acid],activity as FXR activator,[1]; [9],inactive
C[C@H](CCC(=O)O)[C@H]1CC[C@H]2[C@@H]3[C@H](O)[C@H](O)[C@@H]4C[C@H](O)CC[C@]4(C)[C@H]3CC[C@]12C [hyocholic],activity as FXR activator,[1]; [9],inactive
"COC(=O)/C=C(\C)CC/C=C(\C)CC[C@H]1OC1(C)C [JH III, juvenile hormone III]",activity as FXR activator,[1]; 50 μM,far weaker activity relative to the most efficacious bile acids
"C[C@H](CCC(=O)O)[C@H]1CC[C@H]2[C@@H]3[C@H](O)C[C@@H]4C[C@H](O)CC[C@]4(C)[C@H]3CC[C@]12C [CDCA, chenodeoxycholic acid]",activation of other receptors,[5],failed to activate
same,activation of GAL-L-RXR chimera,[6],did not activate
"C[C@H](CCC(=O)O)[C@H]1CC[C@H]2[C@@H]3[C@H](O)C[C@@H]4C[C@H](O)CC[C@]4(C)[C@H]3C[C@H](O)[C@]12C [CA, cholic acid]",activation of FXR,"[2]; 100 μM, coexpression of the liver bile acid transporter",170 fold
same,coactivator recruitment by FXR-RXR,[7],less effective
same,activity as FXR activator,[1]; [9],inactive
Cc1cc2c(cc1C1(c3ccc(C(=O)O)cn3)CC1)C(C)(C)CCC2(C)C [LG268],response of FXR-RXRm,[8],little or no response
CC(=O)N1CCN(c2ccc(OCC3COC(Cn4ccnc4)(c4ccc(Cl)cc4Cl)O3)cc2)CC1 (stereo not shown) [ketonazole],antagonism of CDCA activation of FXR,[3],inactive
"C[C@H](CCC(=O)O)[C@H]1CC[C@H]2[C@@H]3[C@H](O)C[C@@H]4C[C@H](O)CC[C@]4(C)[C@H]3CC[C@]12C (single isomer, unassigned) [peak Z, chenodeoxycholic acid]",effect on RXR,"[6]; HPLC fractions, 25 μg/ml",no effect
"C[C@H](CCC(=O)O)[C@H]1CC[C@H]2[C@@H]3CC[C@@H]4C[C@H](O)CC[C@]4(C)[C@H]3CC[C@]12C [LCA, lithocholic acid]",EC50,[2],~50 µM
"C[C@H](CCC(=O)O)[C@H]1CC[C@H]2[C@@H]3C(=O)C[C@@H]4C[C@H](O)CC[C@]4(C)[C@H]3CC[C@]12C [7-ketolithocholic acid, 5β-cholanic acid-3α-ol-7-one]",activity as FXR activator,[1]; [9],activity intermediate between CDCA and UDCA
